According to patent US5200404A, “3-tetrazolylthiomethyl cephalosporin antibiotics” (ICI Pharma, priority 1990, dated 1993):
Converted amounts (≈) assume the structure as drawn. Where two headings read alike, the source gives them in different places.

Assays:
[1] = tested on: A. anitratus (A8322001); assay: MIC by agar-dilution, Diagnostic Sensitivity Test agar; assay type: cell-based; conditions: Acinetobacter calcoaceticus
Description: (§1) The following results were obtained for Example 1 and two comparative compounds on a standard in vitro test system using Diagnostic Sensitivity Test agar medium. The antibacterial activity is described in terms of the minimum inhibitory concentration (MIC) determined by the agar-dilution technique with an inoculum size of 10^4 CFU/spot.

[2] = tested on: Citro. freundii DR(A8382031); assay: as above; assay type: cell-based; conditions: Citrobacter freundii
Description: as §1

[3] = tested on: Citro. freundii DR(A8382034); assay: as above; assay type: cell-based; conditions: Citrobacter freundii, inoculum 10^4 CFU/spot
Description: as §1

[4] = tested on: E. coli DCO(A8341098); assay: as above; assay type: cell-based; conditions: Escherichia coli, inoculum 10^4 CFU/spot
Description: as §1

[5] = tested on: E. coli JS3 RTEM(A8341135); assay: as above; assay type: cell-based; conditions: Escherichia coli
Description: as §1

[6] = tested on: Ent. cloacae DR(A8401108); assay: as above; assay type: cell-based; conditions: Enterobacter cloacae, inoculum 10^4 CFU/spot
Description: as §1

[7] = tested on: Ent. cloacae DR(A8401109); assay: as above; assay type: cell-based; conditions: Enterobacter cloacae, inoculum 10^4 CFU/spot
Description: as §1

[8] = tested on: Ent. cloacae P99-(A8401054); assay: as above; assay type: cell-based; conditions: Enterobacter cloacae
Description: as §1

[9] = tested on: K. oxytoca D1^+ (A8395056); assay: as above; assay type: cell-based; conditions: Klebsiella oxytoca
Description: as §1

[10] = tested on: P. aeruginosa 18S(A8101024); assay: as above; assay type: cell-based; conditions: Pseudomonas aeruginosa
Description: as §1

[11] = tested on: P. aeruginosa DR18SH(A81011020); assay: as above; assay type: cell-based; conditions: Pseudomonas aeruginosa
Description: as §1

[12] = tested on: P. aeruginosa PU21(A8101028); assay: as above; assay type: cell-based; conditions: Pseudomonas aeruginosa
Description: as §1

[13] = tested on: P. stuartii DR(A8382031); assay: as above; assay type: cell-based; conditions: Providencia stuartii
Description: as §1

[14] = tested on: Pr. morganii (A8433001); assay: as above; assay type: cell-based; conditions: Morganella morganii, inoculum 10^4 CFU/spot
Description: as §1

[15] = tested on: Pr. morganii DR(A8433062); assay: as above; assay type: cell-based; conditions: Morganella morganii, inoculum 10^4 CFU/spot
Description: as §1

[16] = tested on: S. dublin (A8369001); assay: as above; assay type: cell-based; conditions: Salmonella enterica
Description: as §1

[17] = tested on: Serr. marcesens (A8421003); assay: as above; assay type: cell-based; conditions: inoculum 10^4 CFU/spot
Description: as §1

[18] = tested on: Serr. marcesens DR(A8421078); assay: as above; assay type: cell-based; conditions: inoculum 10^4 CFU/spot
Description: as §1

[19] = tested on: Strep. pneumoniae (A8671001); assay: as above; assay type: cell-based; conditions: Streptococcus pneumoniae
Description: as §1

[20] = tested on: Strep. pyogenes (A8681018); assay: as above; assay type: cell-based; conditions: Streptococcus pyogenes
Description: as §1

[21] = tested on: Ent. cloacae P99+(A8401053); assay: as above; assay type: cell-based; conditions: Enterobacter cloacae
Description: as §1

[22] = half-life in marmosets; assay type: in vivo
Procedure: when dosed to marmosets at 3 mg/kg.

In the case of `CC(C)(O/N=C(\C(=O)N[C@@H]1C(=O)N2C(C(=O)[O-])=C(C[n+]3ccccc3)CS[C@H]12)c1csc(N)n1)C(=O)O` [(B), ceftazidime, reference compound], the MIC [1] was 16 µg/mL (≈ 29.3 µM), the MIC [2] was 128 µg/mL (≈ 234 µM) and the MIC [3] was 64 µg/mL (≈ 117 µM). It also gave an MIC [4] of 0.125 µg/mL (≈ 0.229 µM), an MIC [5] of 0.06 µg/mL (≈ 0.11 µM) and an MIC [6] of 32 µg/mL (≈ 58.5 µM). The MIC [7] was 32 µg/mL (≈ 58.5 µM), the MIC [8] was 0.125 µg/mL (≈ 0.229 µM) and the MIC [9] was 0.5 µg/mL (≈ 0.915 µM). The MIC [10] was 2 µg/mL (≈ 3.66 µM), the MIC [11] was 16 µg/mL (≈ 29.3 µM) and the MIC [12] was 1 µg/mL (≈ 1.83 µM). For the same compound, the MIC [13] was 4 µg/mL (≈ 7.32 µM), the MIC [14] was 0.06 µg/mL (≈ 0.11 µM) and the MIC [15] was 16 µg/mL (≈ 29.3 µM). For the same compound, the MIC [16] was 0.125 µg/mL (≈ 0.229 µM), the MIC [17] was 0.25 µg/mL (≈ 0.457 µM) and the MIC [18] was 0.5 µg/mL (≈ 0.915 µM). For the same compound, the MIC [19] was 0.125 µg/mL (≈ 0.229 µM) and the MIC [20] was 0.125 µg/mL (≈ 0.229 µM).
Work on `CC(C)(O/N=C(\C(=O)NC1C(=O)N2C(C(=O)O)=C(CSc3nnnn3-c3cc(O)c(O)c(Cl)c3CC(=O)O)CS[C@H]12)c1csc(N)n1)C(=O)O` (stereo partly shown) [Example 1, 7-[2-(2-Aminothiazol-4-yl)-2-((Z)-1-carboxy-1-methylethoxyimino)acetamido]-3-[(1-(2-carboxymethyl-3-chloro-4,5-dihydroxyphenyl)tetrazol-5-yl)thiomethyl]ceph-3-em-4-carboxylic acid] yielded an MIC ([1]; A. anitratus (A8322001), inoculum 10^4 CFU/spot, read-out: MIC) of 0.06 µg/mL (≈ 0.0779 µM), an MIC ([2]; Citro. freundii DR(A8382031), inoculum 10^4 CFU/spot, read-out: MIC) of 0.25 µg/mL (≈ 0.325 µM) and an MIC [3] of 0.5 µg/mL (≈ 0.649 µM). For the same compound, the MIC [4] was 0.002 µg/mL (≈ 0.0026 µM), the MIC [5] was 0.001 µg/mL (≈ 0.0013 µM) and the MIC [6] was 0.25 µg/mL (≈ 0.325 µM). It also gave an MIC [7] of 0.125 µg/mL (≈ 0.162 µM), an MIC [21] of 1 µg/mL (≈ 1.3 µM) and an MIC ([8]; Ent. cloacae P99-(A8401054), inoculum 10^4 CFU/spot, read-out: MIC) of 0.125 µg/mL (≈ 0.162 µM). The MIC ([9]; K. oxytoca D1^+ (A8395056), inoculum 10^4 CFU/spot, read-out: MIC) was 0.004 µg/mL (≈ 0.00519 µM), the MIC ([10]; P. aeruginosa 18S(A8101024), inoculum 10^4 CFU/spot, read-out: MIC) was 0.004 µg/mL (≈ 0.00519 µM) and the MIC ([11]; P. aeruginosa DR18SH(A81011020), inoculum 10^4 CFU/spot, read-out: MIC) was 0.016 µg/mL (≈ 0.0208 µM). The MIC ([12]; P. aeruginosa PU21(A8101028), inoculum 10^4 CFU/spot, read-out: MIC) was 0.008 µg/mL (≈ 0.0104 µM), the MIC ([13]; P. stuartii DR(A8382031), inoculum 10^4 CFU/spot, read-out: MIC) was 0.03 µg/mL (≈ 0.039 µM) and the MIC [14] was 0.008 µg/mL (≈ 0.0104 µM). The MIC [15] was 0.06 µg/mL (≈ 0.0779 µM), the MIC ([16]; S. dublin (A8369001), inoculum 10^4 CFU/spot, read-out: MIC) was 0.004 µg/mL (≈ 0.00519 µM) and the MIC [17] was 0.008 µg/mL (≈ 0.0104 µM). For the same compound, the MIC [18] was 0.008 µg/mL (≈ 0.0104 µM), the MIC ([19]; Strep. pneumoniae (A8671001), inoculum 10^4 CFU/spot, read-out: MIC) was 0.03 µg/mL (≈ 0.039 µM) and the MIC ([20]; Strep. pyogenes (A8681018), inoculum 10^4 CFU/spot, read-out: MIC) was 0.5 µg/mL (≈ 0.649 µM). For the same compound, the “half-life (t 1/2) compared with representative compounds of EP-A-272827” value ([22]; in words) was “substantially and significantly longer” and the half-life ([22]; marmoset, in vivo, 3 mg/kg) was 20.7 h.
